Laboratory results reported in patent US6579890B1, “Matrix metalloprotease inhibitors” (Syntex (U.S.A.) Inc., priority 1993, dated 2003).

melting point: 198 to 201 °C
SMILES: CC(C)(C)[C@H](NC(=O)[C@H](CCCc1ccc(-c2ccccc2)cc1)CC(=O)O)C(=O)Nc1ccncc1 [Example 32A, N-(2R-carboxymethyl-5-(biphen-4-yl)pentanoyl)-L-t-leucine-N′-(pyridin-4-yl)carboxamide]
